{"source": "patent US5264148A", "about": "“Moisture scavenging oxazolidines” (Angus Cheical Company, priority 1990, dated 1993)", "key": {"[1]": {"system": "four strains of Salmonella typhimurium", "test": "Ames Mutagenicity Assay", "type": "cell-based", "conditions": "presence and absence of exogenous mammalian activation system", "experimental": "The Ames Mutagenicity Assay was performed to determine the mutagenicity of the compound. The assay evaluates the mutagenic potential of a test substance by its ability to induce back mutations at selected loci of four strains of Salmonella typhimurium in the presence and absence of an exogenous mammalian activation system."}, "[2]": {"system": "male and female New Zealand White albino rabbits", "test": "Acute dermal toxicity (TSCA, 789.1100)", "type": "in vivo", "conditions": "topical, 2 g/Kg", "experimental": "Based upon the standards of the Toxic Substance Control Act (TSCA), 40 CFR, Part 798, Subpart A, General Toxicity Testing, Acute Dermal Toxicity, 789.1100, July 1989, the compound was evaluated for its potential to produce systematic toxicity or death following topical application at a dose of 2 g/Kg in male and female New Zealand White albino rabbits."}, "[3]": {"system": "skin of New Zealand White Rabbits", "test": "Primary dermal irritation (TSCA, Section 798.4470)", "type": "in vivo", "conditions": "single topical application, TSCA guidelines", "experimental": "Based upon the standards of the Toxic Substances Control Act (TSCA), 40 CFR, Part 798, Subpart E, Specific Organ/Tissue Toxicity, Primary Dermal Irritation, Section 798.4470, July 1989, 2-isopropyl-4-ethyl oxazolidine was evaluated for its potential to produce primary dermal irritation after a single topical application to the skin of New Zealand White Rabbits."}, "[4]": {"test": "Acute oral toxicity (TSCA, 40 CFR Part 798, 798.1175)", "conditions": "rat, in vivo, dose levels 1.80, 1.50 and 1.30 g/kg, male and female Sprague-Dawley rats", "experimental": "Based upon the standards of the Toxic Substance Control Act (TSCA), 40 CFR, Part 798, Subpart A, General Toxicity Testing, Acute Oral Toxicity, 798.1175, July 1989, 2-isopropyl-4-ethyl oxazolidine was evaluated for its potential to produce death following oral administration at dose levels of 1.80g/kg, 1.50 g/kg, and 1.30 g/kg, to male and female Sprague-Dawley rates."}, "[5]": {"test": "Comparison of water-scavenging activity in pigment millbase (GC determination of remaining water)", "from_the_text": "The water-scavenging activity of 4-ethyl-2-isopropyl oxazolidine (BBA), 1-aza-3,7-dioxo-2,8-diisopropyl-5-ethylbicyclo (3.3.0) octane (EBA), p-toluenesulfonyl isocyanate (PTSI), isophorone diisocyanate (IPDI), and sodium potassium aluminosilicate (SPAS) were compared in pigment millbase formulation. Formulations of this type are representative of pigment formulations used in moisture-curing urethane coating systems. The following millbase formulation was used: […]\nThe following procedure was used to prepare the millbase. All the materials were weighed out and added under agitation into a pot. Soft Resin P-65, obtained from Mobay Corp., is a 65% synthetic (non-reactive polyester) resin in solvent Naphtha 100 and is employed as a grind aid. CAB 551, obtained from Eastman Chemical Products, Inc., Kingsport, Tenn., is cellulose acetate butyrate ester and was employed as a rheology aid. CAB 551 was dissolved in PMA. PMA is propylene glycol monomethyl ether acetate obtained from Eastman Chemical Products, Inc. The solution of CAB 551 in PMA included 33% CAB 551 by weight. Anti-Terra-U is a wetting and dispersing additive obtained from BYK-Chemie U.S.A., Wallingford Conn., and is a solution of a salt of unsaturated polyamine amides and higher molecular weight acidic esters. Ektasolve-EEP, obtained from Eastman Chemicals Products, Inc., is ethyl-3-ethoxypropionate stabilized with 2,6-di-tert-butyl- p-cresol, and was employed as a solvent. M-P-A 2000X, obtained from Rheox, Inc., Hightstown, N.J., was employed as an antisettling agent. R-960-TiO2 is a titanium dioxide pigment obtained from E.I. du Pont Nemours & Co., Inc., Wilmington, Del.\nOnce the ingredients were added to the vessel they were continuously agitated until a 7 Hegman grind value was obtained for the mixture. The millbase was then heated to 60° C. A portion of the mixture was removed, and the percent of water remaining was determined using gas chromatography. Using the determined percentage of water, the minimum amount of the water-scavenger compound to be added to the millbase was calculated using the following equation:\nMinimum weight of water scavenger=wt. mb.×wt. % H2 O×(1/MW\nH2 O×mol.×MW scavenger/purity)\nThe determined amount of each moisture-scavenger was added to one millbase. Six millbases were prepared. Each of the five moisture-scavengers listed above were tested in a millbase with one millbase remaining untreated as a control. Once the millbases were treated, they were mixed continuously. At 30 minutes, 60 minutes, 120 minutes, 180 minutes, 240 minutes, and 300 minutes, samples of the millbase were removed and the amount of water remaining in the millbase was determined using gas chromatography. In each trial two moles of moisture scavenger was used for every mole of water. The results of 6 trials are summarized below in Table I and graphically represented in FIG. 1."}, "[6]": {"system": "intact skin of New Zealand White rabbits", "test": "Primary skin irritation (FIFRA, 40 CFR 162)", "type": "in vivo", "experimental": "The primary skin irritation of the compound was evaluated in compliance with the conditions specified in the Regulation for the Enforcement of Federal Insecticide, Fungicide and Rodenticide Act (40 CFR 162). A small amount of the compound (0.5 ml) was applied to an intact skin site on six New Zealand White rabbits (three males and three females) and allowed to remain in contact with the skin for 4 hours. The sites were scored for erythema and edema and checked for tissue damage 1/2 hour after the end of the application period (41/2 hour reading) and […] (24-hour reading) and at 48 and 72 hours."}, "[7]": {"system": "skin of male and female New Zealand White Rabbits", "test": "Acute dermal toxicity (FIFRA, 40 CFR 162)", "type": "in vivo", "conditions": "undiluted, 2.0 g/kg for 24 hours, rabbits", "experimental": "(§1) The acute dermal toxicity of the compound was evaluated in compliance with the conditions specified in the Regulation for the Enforcement of Federal Insecticide, Fungicide and Rodenticide Act (40 CFR 162). The compound was applied undiluted to the skin of one group of five male and five female New Zealand White Rabbits at a dosage of 2.0 g/kg for 24 hours. […] Animals were weighted 7 days after treatment. At the end of the 14day observation period, the rabbits were weighed, killed, and given a gross necropsy."}, "[8]": {"test": "Acute dermal toxicity (FIFRA, 40 CFR 162)", "type": "in vivo, New Zealand White Rabbits", "conditions": "rabbit, in vivo, topical or ocular, undiluted, male and female New Zealand White rabbits", "experimental": "as §1"}, "[9]": {"system": "male and female Sprague-Dawley derived albino rats", "test": "Acute oral toxicity (FIFRA, 40 CFR 162)", "type": "in vivo", "conditions": "undiluted, 5.0 g/kg, rats", "experimental": "(§2) The acute oral toxicity of the compound was evaluated in compliance with the conditions specified in the Regulation for the Enforcement of Federal Insecticide, Fungicide and Rodenticide Act (40 CFR 162). The compound was administered undiluted at a dosage of 5.0 g/kg to one group of five male and five female, Sprague-Dawley derived, albino rats. […] Animals were weighed seven days after treatment. At the end of the 14-day observation period, the rats were weighed, killed, and given a gross necropsy."}, "[10]": {"test": "Acute oral toxicity (FIFRA, 40 CFR 162)", "type": "in vivo, Sprague-Dawley derived, albino rats", "conditions": "rat, in vivo, undiluted, male and female Sprague-Dawley rats", "experimental": "as §2"}, "[11]": {"system": "eye of New Zealand White rabbits", "test": "Primary eye irritation (FIFRA, 40 CFR 162)", "type": "in vivo", "experimental": "The primary […] irritation of the compound was evaluated in compliance with the conditions specified in the Regulation for the Enforcement of Federal Insecticide, Fungicide and Rodenticide Act (40 CFR 162). A small amount of the undiluted compound (0.1 ml) was applied to the right or left eye of six New Zealand White rabbits (one male and five females). The compound was allowed to remain without rinsing in the eyes of the animals. The eyes were graded for corneal changes, conjunctival changes, and changes in the iris one hour after application, and one, two, three, four, and seven days later."}, "[12]": {"conditions": "2 hrs, millbase heated to 60° C., two moles of scavenger per mole of water"}}, "note": "Read-outs that look alike come from different tables or passages of the source.", "data": [{"smiles": "CCC1COC(C(C)C)N1", "note": "(stereo not drawn) [BBA, 4-ethyl-2-isopropyl oxazolidine]", "values": [{"measurement": "mutagenicity (Ames)", "setting": "[1]", "result": "non-mutagenic"}, {"measurement": "acute dermal toxicity classification", "setting": "[2]; TSCA guidelines", "result": "non-toxic"}, {"measurement": "acute dermal toxicity: mortality", "setting": "[2]; male and female rabbits", "result": "absence of mortality"}, {"measurement": "primary dermal irritation classification", "setting": "[3]", "result": "moderate irritant"}, {"measurement": "LD50", "setting": "[4]", "result": 1600, "unit": "mg/kg"}, {"measurement": "% H2O Remaining After 30 min.", "setting": "[5]", "result": ".20%"}, {"measurement": "% H2O Remaining After 60 min.", "setting": "[5]", "result": ".19%"}, {"measurement": "% H2O Remaining After 2 hrs.", "setting": "[5]", "result": ".13%"}]}, {"smiles": "CCC12COC(C(C)C)N1C(C(C)C)OC2", "note": "(stereo not drawn) [EBA]", "values": [{"measurement": "mutagenicity (Ames)", "setting": "[1]", "result": "non-mutagenic"}, {"measurement": "persistence of irritation", "setting": "[6]; 0.5 ml, 4 hours contact, 72 hours after application", "result": "Mild irritation persisted 72 hours after application"}, {"measurement": "Primary Irritation Index", "setting": "[6]; rabbit, in vivo", "result": 2.7}, {"measurement": "tissue damage (corrosion)", "setting": "[6]; rabbit, in vivo", "result": "No evidence of tissue damage (corrosion)"}, {"measurement": "clinical changes", "setting": "[7]; 14-day observation", "result": "No clinical changes were observed"}, {"measurement": "deaths", "setting": "[7]; 14-day observation", "result": "No deaths occurred"}, {"measurement": "gross necropsy findings", "setting": "[7]; end of 14-day observation", "result": "no significant gross changes"}, {"measurement": "most frequently observed irritative effects", "setting": "[7]", "result": "erythema and desquamation"}, {"measurement": "LD50 at 336 h", "setting": "[8]", "result": "> 2000", "unit": "mg/kg"}, {"measurement": "clinical changes", "setting": "[9]; 14-day observation", "result": "urine and/or fecal stains, mucoid feces, and alopecia"}, {"measurement": "deaths", "setting": "[9]; 14-day observation", "result": "No deaths occurred"}, {"measurement": "gross necropsy findings", "setting": "[9]; end of 14-day observation", "result": "one rat with darkened and mottled lungs, otherwise no gross changes"}, {"measurement": "LD50 at 336 h", "setting": "[10]", "result": "> 5000", "unit": "mg/kg"}, {"measurement": "% H2O Remaining After 30 min.", "setting": "[5]", "result": ".08%"}, {"measurement": "% H2O Remaining After 60 min.", "setting": "[5]", "result": ".08%"}, {"measurement": "% H2O Remaining After 2 hrs.", "setting": "[5]", "result": ".06%"}, {"measurement": "eye irritation persistence", "setting": "[11]; 0.1 ml undiluted, without rinsing, six rabbits", "result": "irritation persisting for seven days"}, {"measurement": "corneal opacity", "setting": "[11]; rabbit, in vivo", "result": "corneal opacity persisting for less than seven days"}]}, {"smiles": "CC1(C)CC(N=C=O)CC(C)(CN=C=O)C1", "note": "(stereo not drawn) [IPDI, isophorone diisocyanate, reference compound]", "values": [{"measurement": "% H2O Remaining After 2 hrs.", "setting": "[5]; [12]", "result": "< .02%"}]}, {"smiles": "Cc1ccc(S(=O)(=O)N=C=O)cc1", "note": "[PTSI, p-toluenesulfonyl isocyanate, reference compound]", "values": [{"measurement": "% H2O Remaining After 30 min.", "setting": "[5]; 30 min, millbase heated to 60° C., two moles of scavenger per mole of water", "result": "< .05%"}, {"measurement": "% H2O Remaining After 60 min.", "setting": "[5]; 60 min, millbase heated to 60° C., two moles of scavenger per mole of water", "result": "< .05%"}, {"measurement": "% H2O Remaining After 2 hrs.", "setting": "[5]; [12]", "result": "< .05%"}]}]}
